According to patent publication US10899738B2 (THE REGENTS OF THE UNIVERSITY OF MICHIGAN, priority 2016, dated 2021):
Where two headings read alike, the source gives them in different places.

Legend:
menin protein = menin protein (Homo sapiens (Human), UniProt O00255); experiment: biochemical; type: binding; conditions: FP competitive binding; menin protein 4 nM, FAM-MM2 probe 2 nM; read-out: Menin Binding Affinity IC50
How it was run: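 Competitive fluorescence polarization assay using FAM-labelled MLL1 peptide probe FAM-MM2 (2 nM final) preincubated with menin (4 nM final) in PBS with 0.02% bovine γ-globulin, 4% DMSO and 0.01% Triton X-100. Compounds were added and incubated 30 min at room temperature. IC50 came from nonlinear regression of competition curves, with Ki also derived.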

[1] = Cell growth inhibition, CellTiter-Glo Luminescent Cell Viability Assay; type: cell-based
How it was run: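 Cells seeded at 2,000/well with serially diluted compound and cultured 4 days at 37 °C, 5% CO2. Viability read by CellTiter-Glo luminescence; IC50 derived from dose-response.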

[2] = MOLM-13, 96 h, read-out: Cell Growth Inhibition IC50 (μM) MOLM13, MOLM13 cells, 4 days, CellTiter-Glo
[3] = MV4-11, 96 h, read-out: Cell Growth Inhibition IC50 (μM) MV4, 11, MV4, 11 cells, 4 days, CellTiter-Glo
[4] = MOLM-13, 96 h, MOLM13 cells, 4 days, CellTiter-Glo, read-out: Cell Growth Inhibition IC50 (μM) MOLM13
[5] = MV4-11, 96 h, MV4, 11 cells, 4 days, CellTiter-Glo, read-out: Cell Growth Inhibition IC50 (μM) MV4, 11

menin protein, sequence (O00255 whole entry): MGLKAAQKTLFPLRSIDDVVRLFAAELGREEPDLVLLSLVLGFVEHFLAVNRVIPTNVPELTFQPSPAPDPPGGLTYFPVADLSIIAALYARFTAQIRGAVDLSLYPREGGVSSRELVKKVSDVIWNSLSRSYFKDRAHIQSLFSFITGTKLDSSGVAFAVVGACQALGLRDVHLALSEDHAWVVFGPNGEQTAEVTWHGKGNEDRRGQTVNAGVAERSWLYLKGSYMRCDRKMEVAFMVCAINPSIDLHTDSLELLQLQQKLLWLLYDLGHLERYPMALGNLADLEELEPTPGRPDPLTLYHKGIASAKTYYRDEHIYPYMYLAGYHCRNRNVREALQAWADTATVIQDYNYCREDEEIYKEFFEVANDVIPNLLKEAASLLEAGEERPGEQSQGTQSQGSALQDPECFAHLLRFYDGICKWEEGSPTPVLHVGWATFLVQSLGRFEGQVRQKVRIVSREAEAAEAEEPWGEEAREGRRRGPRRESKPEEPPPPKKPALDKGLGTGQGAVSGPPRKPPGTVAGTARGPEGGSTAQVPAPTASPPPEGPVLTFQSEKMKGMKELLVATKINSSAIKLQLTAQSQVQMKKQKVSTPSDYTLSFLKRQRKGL

Compound | IC50 (menin protein) | IC50 ([1]; read-out: Cell Growth Inhibition IC50 (μM) MOLM13, MOLM13 cells, 4 days, CellTiter-Glo) | IC50 ([1]; read-out: Cell Growth Inhibition IC50 (μM) MV4, 11, MV4, 11 cells, 4 days, CellTiter-Glo) | IC50 [1, 2] | IC50 [1, 3] | IC50 [1, 4] | IC50 [1, 5]
CNC(=O)O[C@H]1CCC[C@@H]1C(Cn1ccnc1)(c1ccccc1)C1CCN(CC2CN(c3ccc(S(=O)(=O)c4ccc(C(=O)O)cc4)cc3)C2)CC1 (mixture of isomers) [compound 363, rac-4-((4-(3-((4-(2-(1H-imidazol-1-yl)-1-((1R,2S)-2-((methylcarbamoyl)oxy)cyclopentyl)-1-phenylethyl)piperidin-1-yl)methyl)azetidin-1-yl)phenyl)sulfonyl)benzoic acid] | 27 nM | 2.64 µM | 0.56 µM |  |  |  | 
CNC(=O)N[C@H]1CCC[C@@H]1C1(C2CCN(CC3CN(c4ccc(S(=O)(=O)C5CC5)cc4)C3)CC2)CNCc2ccccc21 (mixture of isomers) [compound 285, rac-1-((1S,2R)-2-(4-(1-((1-(4-(cyclopropylsulfonyl)phenyl)azetidin-3-yl)methyl)piperidin-4-yl)-1,2,3,4-tetrahydroisoquinolin-4-yl)cyclopentyl)-3-methylurea] | 9 nM |  |  | 12.4 µM | 2.48 µM |  | 
CC(=O)O[C@H]1CCC[C@@H]1C1(C2CCN(CC3CN(c4ccc(S(=O)(=O)C5CC5)cc4)C3)CC2)CN(C)Cc2ccccc21 (mixture of isomers) [compound 203, rac-(1S,2R)-2-(4-(1-((1-(4-(cyclopropylsulfonyl)phenyl)azetidin-3-yl)methyl)piperidin-4-yl)-2-methyl-1,2,3,4-tetrahydroisoquinolin-4-yl)cyclopentyl acetate] | 9 nM |  |  | 0.687 µM | 0.234 µM |  | 
CC(=O)O[C@H]1CCC[C@@H]1C1(C2CCN(CC3CN(c4ccc(S(=O)(=O)c5ccnc(C)c5)cc4)C3)CC2)CN(C)Cc2ccccc21 (mixture of isomers) [compound 201, rac-(1S,2R)-2-(2-methyl-4-(1-((1-(4-((2-methylpyridin-4-yl)sulfonyl)phenyl)azetidin-3-yl)methyl)piperidin-4-yl)-1,2,3,4-tetrahydroisoquinolin-4-yl)cyclopentyl acetate] | 5 nM |  |  | 0.399 ± 0.153 µM | 0.09 ± 0.051 µM |  | 
CNC(=O)O[C@H]1CCC[C@@H]1C(Cn1ccnc1C)(c1ccccc1)C1CCN(CC2CN(c3ccc(C#N)cc3)C2)CC1 (mixture of isomers) [compound 406, rac-(1S,2R)-2-(1-(1-((1-(4-cyanophenyl)azetidin-3-yl)methyl)piperidin-4-yl)-2-(2-methyl-1H-imidazol-1-yl)-1-phenylethyl)cyclopentyl methylcarbamate] | 3 nM |  |  | 0.009 ± 0.0004 µM | 0.004 ± 0.002 µM |  | 
CCN1Cc2ccccc2C(C2CCCC2)(C2CCN(CC3CN(c4ccc(S(=O)(=O)C5CC5)cc4)C3)C(C)C2)C1 (stereo not drawn) [compound 94, 4-cyclopentyl-4-(1-((1-(4-(cyclopropylsulfonyl)phenyl)azetidin-3-yl)methyl)-2-methylpiperidin-4-yl)-2-ethyl-1,2,3,4-tetrahydroisoquinoline] | 29 nM |  |  |  |  | 2.3 µM | 2 µM
CCN1Cc2ccccc2C(C2CCCC2)(C2CCN(CC3CN(c4ccc(S(=O)(=O)CC)cc4)C3)CC2)C1 (stereo not drawn) [compound 136, 4-cyclopentyl-2-ethyl-4-(1-((1-(4-(ethylsulfonyl)phenyl)azetidin-3-yl)methyl)piperidin-4-yl)-1,2,3,4-tetrahydroisoquinoline] | 9 nM |  |  |  |  | 3.8 µM | 1.2 µM
COC(=O)N[C@H]1CCC[C@@H]1C(C#N)(c1ccccc1)C1CCN(CC2CN(c3ccc(S(=O)(=O)C4CC5CCC4C5)cc3)C2)CC1 (mixture of isomers) [compound 396, methyl rac-((1S,2R)-2-((1-((1-(4-(bicyclo[2.2.1]heptan-2-ylsulfonyl)phenyl)azetidin-3-yl)methyl)piperidin-4-yl)(cyano)(phenyl)methyl)cyclopentyl)carbamate] | 12 nM |  |  | 1.46 µM | 0.46 µM |  | 
